Experimental data taken from ChEMBL document CHEMBL5365530, “Identification of a Novel, Potent, and Orally Bioavailable Guanidine-Based SHP2 Allosteric Inhibitor from Virtual Screening and Rational Structural Optimization for the Treatment of KRAS Mutant Cancers” (J Med Chem, 2023).

Key:
[1] = molecular target: T1, Tyrosine-protein phosphatase non-receptor type 11 (Homo sapiens, UniProt Q06124); experiment: Allosteric Inhibition of H2N-LN(pY)IDLDLV(dPEG8)LST(pY)ASINFQKASINFQK-amide-activated SHP2 (unknown origin) using DiFMUP as substrate pretreated with enzyme for 1 hr followed by substrate addition and measured after 20 mins by fluorescence based analysis
T1 sequence (Q06124 whole entry): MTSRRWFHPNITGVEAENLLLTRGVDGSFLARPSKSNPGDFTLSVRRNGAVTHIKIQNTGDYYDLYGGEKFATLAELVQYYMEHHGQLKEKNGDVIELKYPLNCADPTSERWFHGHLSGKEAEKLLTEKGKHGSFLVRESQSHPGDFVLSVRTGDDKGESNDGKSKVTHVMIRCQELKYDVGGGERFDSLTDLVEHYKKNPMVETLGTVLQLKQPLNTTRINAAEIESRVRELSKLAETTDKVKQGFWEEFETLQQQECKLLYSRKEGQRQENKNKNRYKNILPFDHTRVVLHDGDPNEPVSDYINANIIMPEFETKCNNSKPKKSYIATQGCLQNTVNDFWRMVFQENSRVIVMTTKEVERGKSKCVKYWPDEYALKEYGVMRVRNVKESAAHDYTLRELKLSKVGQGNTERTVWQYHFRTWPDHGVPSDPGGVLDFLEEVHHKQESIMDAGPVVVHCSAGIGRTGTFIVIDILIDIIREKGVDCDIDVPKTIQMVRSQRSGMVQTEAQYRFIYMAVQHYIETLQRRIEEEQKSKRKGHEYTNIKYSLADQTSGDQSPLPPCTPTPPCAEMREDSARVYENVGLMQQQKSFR

MIA PaCa-2 = experiment: Antiproliferative activity against human MIA PaCa-2 cells harboring KRASG12C mutant assessed as inhibition of cell growth incubated for 72 hrs by CellTiter-LumiII Luminescent assay; assay type: functional, cell-based; details: MIA PaCa-2, 72 h
[2] = Hepatotoxicity in ICR mouse assessed as increase in plasma AST level at 100 mg/kg, po administered once every 2 days and measured on day 14; assay type: toxicity, organism-based; details: in vivo, 336 h, time 14 day
KYSE-520 cell line = experiment: Antiproliferative activity against human KYSE-520 cells assessed as inhibition of cell growth incubated for 72 hrs by CellTiter-LumiII Luminescent assay; assay type: functional, cell-based; details: KYSE-520, 72 h
[3] = Hepatotoxicity in ICR mouse assessed as increase in plasma ALT level at 100 mg/kg, po administered once every 2 days and measured on day 14; assay type: toxicity, organism-based; details: in vivo, 336 h, time 14 day
RAW264.7 = experiment: Cytotoxicity against mouse RAW264.7 cells assessed as cell viability at 10 to 30 uM incubated for 72 hrs by CellTiter-LumiII Luminescent assay; assay type: toxicity, cell-based; details: raw264.7, 72 h, dose 10-30 µM
[4] = Hepatotoxicity in ICR mouse assessed as increase in plasma ALP level at 100 mg/kg, po administered once every 2 days and measured on day 14; assay type: toxicity, organism-based; details: in vivo, 336 h, time 14 day

Row | Compound | IC50 [1] [nM] | other results
1 | NC(=S)N1CCN(c2cnc(-c3cccc(Cl)c3Cl)c(N)n2)CC1 | 1150 | –
2 | N#Cc1ccc(/N=C(\N)N2CCN(c3cnc(-c4cccc(Cl)c4Cl)cn3)CC2)cc1 | 3760 | –
3 | COc1cccc(/N=C(\N)N2CCN(c3cnc(-c4cccc(Cl)c4Cl)c(N)n3)CC2)c1 | 30.4 | –
4 | CN/C(=N\c1ccc(C#N)cc1)N1CCN(c2cnc(-c3cccc(Cl)c3Cl)c(N)n2)CC1 | 2000 | –
5 | CC1(N)CCN(c2cnc(-c3cccc(Cl)c3Cl)c(N)n2)CC1 | – | IC50 (MIA PaCa-2): 41900 nM; Activity [2]: Toxic; IC50 (KYSE-520 cell line): 10800 nM; Activity [3]: Toxic; Activity (RAW264.7): Non-Toxic; Activity [4]: Toxic
6 | N/C(=N\c1cccs1)N1CCN(c2cnc(-c3cccc(Cl)c3Cl)c(N)n2)CC1 | 252 | –
7 | N/C(=N\c1ccc(C(F)(F)F)cc1)N1CCN(c2cnc(-c3cccc(Cl)c3Cl)c(N)n2)CC1 | 92.2 | –
8 | N#Cc1ccc(/N=C(\N)N2CCN(c3cnc(Sc4cccnc4C(F)(F)F)c(N)n3)CC2)cc1 | 159 | –
9 | NC(=O)N1CCN(c2cnc(-c3cccc(Cl)c3Cl)c(N)n2)CC1 | 6360 | –

Second part, led by results:

Row | IC50 [1] [nM] | Compound | other results
10 | 64.5 | N/C(=N\c1ccncc1)N1CCN(c2cnc(-c3cccc(Cl)c3Cl)c(N)n2)CC1 | –
11 | 34.6 | N#Cc1ccc(/N=C(\N)N2CCN(c3cnc(-c4cccc(Cl)c4Cl)c(N)n3)CC2)cc1 | –
12 | 74.2 | N#Cc1ccc(/N=C(\N)N2CCN(c3cnc(-c4cccc(Cl)c4Cl)c(N)n3)CC2)cn1 | –
13 | 53.3 | N/C(=N\c1ccc(F)cc1)N1CCN(c2cnc(-c3cccc(Cl)c3Cl)c(N)n2)CC1 | –
14 | 137 | N/C(=N\c1ccccc1)N1CCN(c2cnc(-c3cccc(Cl)c3Cl)c(N)n2)CC1 | –
15 | 210 | N/C(=N\c1cncnc1)N1CCN(c2cnc(-c3cccc(Cl)c3Cl)c(N)n2)CC1 | –
